Paper PMC10882719 (Frontiers in Neuroscience, 2024)
Read-outs that look alike come from different tables or passages of the source.

Key:
Format in all cases: cell-based
168 GPCRs [1] = target: T1, 168 GPCRs (Homo sapiens, UniProt Q969V1)
T1 construct: host or cells: PathHunter cell lines

168 GPCRs [2] = target: T2, 168 GPCRs (Homo sapiens, UniProt P43119); settings: PTGIR
T2 construct: host or cells: PathHunter cell lines

168 GPCRs [3] = target: T3, 168 GPCRs (Homo sapiens, UniProt Q8TDV5)
T3 construct: host or cells: PathHunter cell lines
T3 sequence (Q8TDV5 1-335): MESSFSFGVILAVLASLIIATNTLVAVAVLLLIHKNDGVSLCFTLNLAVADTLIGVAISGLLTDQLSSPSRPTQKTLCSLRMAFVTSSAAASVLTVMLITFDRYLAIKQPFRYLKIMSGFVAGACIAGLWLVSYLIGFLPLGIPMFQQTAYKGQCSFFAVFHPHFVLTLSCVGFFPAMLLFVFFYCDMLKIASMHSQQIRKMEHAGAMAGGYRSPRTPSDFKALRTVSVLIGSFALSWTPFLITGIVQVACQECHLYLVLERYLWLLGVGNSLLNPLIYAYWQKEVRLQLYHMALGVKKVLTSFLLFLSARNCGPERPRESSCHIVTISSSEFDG

168 GPCRs [4] = target: T4, 168 GPCRs (Homo sapiens, UniProt P30939); settings: HTR1F
T4 construct: host or cells: PathHunter cell lines
T4 sequence (P30939 1-366): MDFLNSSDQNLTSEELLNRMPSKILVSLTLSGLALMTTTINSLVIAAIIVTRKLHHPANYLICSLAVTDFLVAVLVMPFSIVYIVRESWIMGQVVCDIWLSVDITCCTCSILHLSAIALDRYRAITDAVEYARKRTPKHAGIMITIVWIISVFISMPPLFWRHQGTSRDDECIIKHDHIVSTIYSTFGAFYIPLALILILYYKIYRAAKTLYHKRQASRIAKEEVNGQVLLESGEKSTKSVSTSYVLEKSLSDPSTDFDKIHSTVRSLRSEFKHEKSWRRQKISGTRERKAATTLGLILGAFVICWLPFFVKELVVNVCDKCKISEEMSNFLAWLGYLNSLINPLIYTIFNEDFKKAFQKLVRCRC

168 GPCRs [5] = target: T5, 168 GPCRs (Homo sapiens, UniProt P41968); settings: MC3R
T5 construct: host or cells: PathHunter cell lines
T5 sequence (P41968 whole entry): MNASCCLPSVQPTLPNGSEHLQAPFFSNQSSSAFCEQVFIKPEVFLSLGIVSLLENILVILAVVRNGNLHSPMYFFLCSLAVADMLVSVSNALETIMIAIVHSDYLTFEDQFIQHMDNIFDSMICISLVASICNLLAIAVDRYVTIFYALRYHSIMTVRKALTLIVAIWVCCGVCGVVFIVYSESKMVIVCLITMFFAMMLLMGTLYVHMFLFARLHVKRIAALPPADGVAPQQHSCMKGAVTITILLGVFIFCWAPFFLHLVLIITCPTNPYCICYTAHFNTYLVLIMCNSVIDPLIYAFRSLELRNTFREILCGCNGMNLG

168 GPCRs [6] = target: T6, 168 GPCRs (Homo sapiens, UniProt P49146); settings: NPY2R
T6 construct: host or cells: PathHunter cell lines
T6 sequence (P49146 1-381): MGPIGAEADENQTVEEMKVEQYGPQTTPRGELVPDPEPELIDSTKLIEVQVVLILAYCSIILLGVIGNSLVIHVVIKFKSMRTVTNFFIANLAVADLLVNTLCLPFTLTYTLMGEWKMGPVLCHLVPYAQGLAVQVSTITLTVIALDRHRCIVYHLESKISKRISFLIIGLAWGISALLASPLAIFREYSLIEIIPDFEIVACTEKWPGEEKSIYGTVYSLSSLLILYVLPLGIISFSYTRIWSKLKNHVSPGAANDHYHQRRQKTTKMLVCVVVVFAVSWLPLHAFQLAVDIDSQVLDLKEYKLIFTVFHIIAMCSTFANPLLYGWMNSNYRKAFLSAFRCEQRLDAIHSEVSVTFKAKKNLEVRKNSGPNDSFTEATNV

168 GPCRs [7] = target: T7, 168 GPCRs (Homo sapiens, UniProt O43614)
T7 construct: host or cells: PathHunter cell lines
T7 sequence (O43614 1-444): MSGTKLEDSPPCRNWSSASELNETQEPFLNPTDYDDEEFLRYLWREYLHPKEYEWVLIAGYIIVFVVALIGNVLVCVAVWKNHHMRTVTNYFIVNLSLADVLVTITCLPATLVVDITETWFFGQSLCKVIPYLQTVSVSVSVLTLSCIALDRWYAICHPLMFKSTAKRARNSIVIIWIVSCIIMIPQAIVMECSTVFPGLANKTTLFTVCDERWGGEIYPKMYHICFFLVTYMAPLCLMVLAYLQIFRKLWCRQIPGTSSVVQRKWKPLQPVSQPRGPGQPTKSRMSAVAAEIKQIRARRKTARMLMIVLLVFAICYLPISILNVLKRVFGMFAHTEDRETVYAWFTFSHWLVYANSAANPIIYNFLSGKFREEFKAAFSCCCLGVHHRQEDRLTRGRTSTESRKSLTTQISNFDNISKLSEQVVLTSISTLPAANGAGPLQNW

168 GPCRs [8] = target: T8, 168 GPCRs (Homo sapiens, UniProt P43116); settings: PTGER2
T8 construct: host or cells: PathHunter cell lines
T8 sequence (P43116 whole entry): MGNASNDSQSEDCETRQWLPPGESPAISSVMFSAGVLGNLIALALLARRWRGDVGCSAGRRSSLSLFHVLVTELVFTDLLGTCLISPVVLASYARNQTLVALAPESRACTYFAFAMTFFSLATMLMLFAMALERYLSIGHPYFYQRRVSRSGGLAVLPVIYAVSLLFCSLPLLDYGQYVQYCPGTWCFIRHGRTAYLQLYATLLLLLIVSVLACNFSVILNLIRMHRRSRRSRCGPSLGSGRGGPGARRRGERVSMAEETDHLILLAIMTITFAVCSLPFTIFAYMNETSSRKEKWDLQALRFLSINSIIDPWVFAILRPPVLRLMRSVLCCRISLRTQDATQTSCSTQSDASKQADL

168 GPCRs [9] = target: T9, 168 GPCRs (Homo sapiens, UniProt P41145); settings: OPRK1
T9 construct: host or cells: PathHunter cell lines
T9 sequence (P41145 whole entry): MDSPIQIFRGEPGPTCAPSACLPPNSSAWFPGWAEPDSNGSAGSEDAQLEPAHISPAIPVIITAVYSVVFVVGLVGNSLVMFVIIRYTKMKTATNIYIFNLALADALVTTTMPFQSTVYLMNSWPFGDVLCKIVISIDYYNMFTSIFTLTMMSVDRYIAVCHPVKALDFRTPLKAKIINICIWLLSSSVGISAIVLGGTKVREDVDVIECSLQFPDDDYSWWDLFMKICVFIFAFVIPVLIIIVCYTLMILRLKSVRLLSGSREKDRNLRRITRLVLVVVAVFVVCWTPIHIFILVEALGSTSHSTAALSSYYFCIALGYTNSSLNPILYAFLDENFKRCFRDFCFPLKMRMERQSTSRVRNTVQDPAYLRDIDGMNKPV

T1 sequence (Q969V1 whole entry): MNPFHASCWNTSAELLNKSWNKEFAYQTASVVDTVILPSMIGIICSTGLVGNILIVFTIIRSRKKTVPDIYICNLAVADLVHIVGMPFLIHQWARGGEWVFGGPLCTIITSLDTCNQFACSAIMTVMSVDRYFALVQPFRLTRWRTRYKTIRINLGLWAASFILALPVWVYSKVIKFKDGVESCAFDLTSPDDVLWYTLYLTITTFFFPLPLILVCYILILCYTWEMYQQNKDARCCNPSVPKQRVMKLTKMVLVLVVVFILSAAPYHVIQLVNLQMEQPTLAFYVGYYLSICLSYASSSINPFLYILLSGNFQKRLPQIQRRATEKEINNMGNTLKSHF
T2 sequence (P43119 whole entry): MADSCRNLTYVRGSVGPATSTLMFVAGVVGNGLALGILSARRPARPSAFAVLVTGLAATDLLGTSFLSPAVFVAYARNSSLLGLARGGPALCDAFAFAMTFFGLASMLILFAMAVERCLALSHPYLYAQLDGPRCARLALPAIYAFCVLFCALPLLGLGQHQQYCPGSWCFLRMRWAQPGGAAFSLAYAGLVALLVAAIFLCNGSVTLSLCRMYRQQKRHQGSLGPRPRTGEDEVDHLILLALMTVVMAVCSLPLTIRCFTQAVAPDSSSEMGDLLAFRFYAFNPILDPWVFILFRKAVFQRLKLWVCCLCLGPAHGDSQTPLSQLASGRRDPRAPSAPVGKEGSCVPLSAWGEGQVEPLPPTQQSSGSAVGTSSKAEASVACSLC

Row | Compound | % Agonist Activity (168 GPCRs [1]; MCHR2, 1 uM) [%] | % Antagonist Activity (168 GPCRs [1]; MCHR2, 1 uM) [%] | % Agonist Activity (168 GPCRs [1]; MCHR2, 10 uM) [%] | % Antagonist Activity (168 GPCRs [1]; MCHR2, 10 uM) [%] | % Agonist Activity (168 GPCRs [2]; Conc 1 uM) [%] | % Antagonist Activity (168 GPCRs [2]; Conc 1 uM) [%] | % Agonist Activity (168 GPCRs [2]; Conc 10 uM) [%] | % Antagonist Activity (168 GPCRs [2]; Conc 10 uM) [%] | % Agonist Activity (168 GPCRs [3]; GPR119, 1 uM) [%] | % Antagonist Activity (168 GPCRs [3]; GPR119, 1 uM) [%] | % Agonist Activity (168 GPCRs [3]; GPR119, 10 uM) [%] | % Antagonist Activity (168 GPCRs [3]; GPR119, 10 uM) [%] | % Agonist Activity (168 GPCRs [4]; 1 uM) [%] | % Antagonist Activity (168 GPCRs [4]; 1 uM) [%] | % Agonist Activity (168 GPCRs [4]; 10 uM) [%] | % Antagonist Activity (168 GPCRs [4]; 10 uM) [%] | % Agonist Activity (168 GPCRs [5]; 1 uM) [%] | % Antagonist Activity (168 GPCRs [5]; 1 uM) [%] | % Agonist Activity (168 GPCRs [5]; 10 uM) [%] | % Antagonist Activity (168 GPCRs [5]; 10 uM) [%] | further results
1 | CNC(C)C(=O)c1ccc2c(c1)OCO2 (stereo not drawn) [methylone] | -1.5 | 2 | -0.7 | -4.5 | -4.4 | 12.4 | -2.3 | -21.5 | -5.8 | 17.1 | -2.2 | -8.8 | -4.4 | 14.4 | -3 | 9.2 | -3.2 | -5.7 | -1.8 | 0.3 | % Agonist Activity (168 GPCRs [6]; Conc 1 uM): -0.1%; % Antagonist Activity (168 GPCRs [6]; Conc 1 uM): 2.3%; % Agonist Activity (168 GPCRs [6]; Conc 10 uM): 0.2%; % Antagonist Activity (168 GPCRs [6]; Conc 10 uM): 2%; % Agonist Activity (168 GPCRs [7]; HCRTR2, 1 uM): 0.2%; % Antagonist Activity (168 GPCRs [7]; HCRTR2, 1 uM): 6.4%; % Agonist Activity (168 GPCRs [7]; HCRTR2, 10 uM): 0.2%; % Antagonist Activity (168 GPCRs [7]; HCRTR2, 10 uM): 2.4%; % Agonist Activity (168 GPCRs [8]; Conc 1 uM): -1.4%; % Antagonist Activity (168 GPCRs [8]; Conc 1 uM): 12.7%; % Agonist Activity (168 GPCRs [8]; Conc 10 uM): -3.1%; % Antagonist Activity (168 GPCRs [8]; Conc 10 uM): -4.4%; % Agonist Activity (168 GPCRs [9]; Conc 1 uM): -6.3%; % Antagonist Activity (168 GPCRs [9]; Conc 1 uM): 11.8%; % Agonist Activity (168 GPCRs [9]; Conc 10 uM): -4.1%; % Antagonist Activity (168 GPCRs [9]; Conc 10 uM): 10.4%
2 | CNC(C)Cc1ccc2c(c1)OCO2 (stereo not drawn) [MDMA, 3,4-Methylenedioxy methamphetamine, reference compound] | 0.8 | -25 | 0.3 | -17.3 | 2.3 | 18.8 | 8.6 | 22.7 | 17.1 | 2.7 | 10.2 | 3.8 | 10.9 | 14.6 | 8.5 | 10.8 | 0.7 | 5.9 | 1.3 | 1.9 | % Agonist Activity (168 GPCRs [6]; Conc 1 uM): -0.1%; % Antagonist Activity (168 GPCRs [6]; Conc 1 uM): 12%; % Agonist Activity (168 GPCRs [6]; Conc 10 uM): 0.2%; % Antagonist Activity (168 GPCRs [6]; Conc 10 uM): 4.8%; % Agonist Activity (168 GPCRs [7]; HCRTR2, 1 uM): -0.3%; % Antagonist Activity (168 GPCRs [7]; HCRTR2, 1 uM): 5.9%; % Agonist Activity (168 GPCRs [7]; HCRTR2, 10 uM): -0.1%; % Antagonist Activity (168 GPCRs [7]; HCRTR2, 10 uM): -3.5%; % Agonist Activity (168 GPCRs [8]; Conc 1 uM): 0.7%; % Antagonist Activity (168 GPCRs [8]; Conc 1 uM): -9.8%; % Agonist Activity (168 GPCRs [8]; Conc 10 uM): 1.1%; % Antagonist Activity (168 GPCRs [8]; Conc 10 uM): -12.8%; % Agonist Activity (168 GPCRs [9]; Conc 1 uM): 1.7%; % Antagonist Activity (168 GPCRs [9]; Conc 1 uM): 16.7%; % Agonist Activity (168 GPCRs [9]; Conc 10 uM): 0.5%; % Antagonist Activity (168 GPCRs [9]; Conc 10 uM): 18.1%
